Laboratory results from ChEMBL document CHEMBL1201862, “PubChem BioAssay data set” (2004).
Structures can show the parent of a compound that is named as a salt.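 Where inhibition never reached the appropriate level, the endpoint shown equals the highest concentration tested. Otherwise, values were interpolated linearly from a five-concentration, 48-hour dose response in 96-well plates. Abbreviation: GI50, concentration required for 50% inhibition of growth.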 The source made the active and inactive calls. Cut-off read from the data, not from the text of the source: active = GI50 up to about 1.1 µM and inactive = higher.

Key:
Experiment in all cases: NCI tumour cell line growth inhibition, 48 h
[1] = system: LXFL 529
[2] = system: XF498
[3] = system: DLD-1
[4] = system: HOP-18
[5] = system: DMS-273
[6] = system: DMS-114
[7] = system: SNB-78
[8] = system: M19-MEL
[9] = system: RXF 631

Compound	GI50 [1]	GI50 [2]	GI50 [3]	GI50 [4]	GI50 [5]	GI50 [6]	GI50 [7]	GI50 [8]	GI50 [9]
C=C1C(=O)C23C(O)C1CCC2C12CO[C@]3(O)[C@@H](O)C1C(C)(C)CCC2O (some centres undefined)	2.11 µM (inactive)	2.44 µM (inactive)	15.3 µM (inactive)	11.7 µM (inactive)	14.7 µM (inactive)	5.82 µM (inactive)	6.55 µM (inactive)	10.7 µM (inactive)	13.7 µM (inactive)
COC(=O)c1cc(Cl)ccc1NC(=O)c1ccc([N+](=O)[O-])cc1	25.8 µM (inactive)	14.4 µM (inactive)	38.8 µM (inactive)		21.6 µM (inactive)	33.5 µM (inactive)	32.6 µM (inactive)	40.7 µM (inactive)	17.6 µM (inactive)
O=C(CCc1nnc2s/c(=C\c3ccc4c(c3)OCO4)c(=O)n12)Nc1cc(Cl)ccc1Cl	> 100 µM (inactive)	> 100 µM (inactive)	> 100 µM (inactive)	> 100 µM (inactive)	> 55.1 µM (inactive)	> 100 µM (inactive)	> 100 µM (inactive)	> 100 µM (inactive)	> 100 µM (inactive)
Clc1ccc(C(c2ccccc2Cl)C(Cl)Cl)cc1 (centres undefined) [MITOTANE]	20.9 µM (inactive)	15.7 µM (inactive)	19.5 µM (inactive)	12.5 µM (inactive)	18.5 µM (inactive)	18.5 µM (inactive)	20.7 µM (inactive)	19.7 µM (inactive)	17.9 µM (inactive)
O=C(C#Cc1ccccc1)NC/C=C/c1ccccc1	38.2 µM (inactive)		43.1 µM (inactive)	> 100 µM (inactive)		46.6 µM (inactive)	29.9 µM (inactive)	60.1 µM (inactive)	
CN1N=CSC12C(=O)N(c1ccc(Cl)cc1)C(=O)N2c1ccc(Cl)cc1 (centres undefined)	3.34 µM (inactive)		4.06 µM (inactive)	3.43 µM (inactive)		1.87 µM (inactive)	3.98 µM (inactive)	3.37 µM (inactive)	
O=S1(=O)OCCOS(=O)(=O)C1(I)I	11 µM (inactive)	18 µM (inactive)	16.9 µM (inactive)		20.6 µM (inactive)	18 µM (inactive)	23.2 µM (inactive)	17.7 µM (inactive)	
CCC1(N=[N+]=[N-])C(=O)Nc2cc(C)ccc2C1=O (centres undefined)	38 µM (inactive)		> 100 µM (inactive)	32.6 µM (inactive)	23 µM (inactive)	38.1 µM (inactive)	86.1 µM (inactive)	60.3 µM (inactive)	
CCOC(=O)c1cc(OC(=O)CC)c2c(OC)ccc(OC)c2c1	37.8 µM (inactive)	> 100 µM (inactive)	> 100 µM (inactive)	> 100 µM (inactive)	35.5 µM (inactive)	45 µM (inactive)		67.6 µM (inactive)	
CN(C)c1ccc(/C=C(\NC(=O)c2ccccc2)c2nc3cncnc3[nH]2)cc1	> 100 µM (inactive)	> 100 µM (inactive)	> 100 µM (inactive)			> 100 µM (inactive)	> 100 µM (inactive)	> 100 µM (inactive)	> 100 µM (inactive)
CN1CCN(C)C1c1cccc(C2N(C)CCN2C)c1	> 100 µM (inactive)		> 100 µM (inactive)		> 100 µM (inactive)	> 100 µM (inactive)	> 100 µM (inactive)	> 100 µM (inactive)	> 100 µM (inactive)
NC1=Nc2ccccc2Sc2ccccc21		52.1 µM (inactive)	> 100 µM (inactive)	0.912 µM (active)	> 100 µM (inactive)	> 100 µM (inactive)	> 100 µM (inactive)	> 100 µM (inactive)	
CC(C)(C)S(=O)OC12CC3CC(CC(C3)C1)C2 (centres undefined)	> 100 µM (inactive)	> 100 µM (inactive)			> 100 µM (inactive)	> 100 µM (inactive)	> 100 µM (inactive)	> 100 µM (inactive)	
CC(=O)Nc1c(C)ccc2c1C(=O)c1ccccc1C2=O	> 100 µM (inactive)		> 100 µM (inactive)	> 100 µM (inactive)	> 100 µM (inactive)	35.2 µM (inactive)	> 100 µM (inactive)	> 100 µM (inactive)	
CNC(=O)NCCCCC(NC(=O)OCc1ccccc1)C(=O)OCc1ccccc1 (centres undefined)	32.1 µM (inactive)	18.3 µM (inactive)	38.2 µM (inactive)		48.8 µM (inactive)	23.6 µM (inactive)	25.4 µM (inactive)	21.8 µM (inactive)	23.6 µM (inactive)
CC(C)(C)c1cc(C(O)(C(F)(F)F)C(F)(F)F)c2c(c1)C(C(F)(F)F)(C(F)(F)F)OC(c1ccccc1)(C(C)(C)C)N2 (centres undefined)	3.28 µM (inactive)	3.6 µM (inactive)	3.76 µM (inactive)	0.515 µM (active)	3.61 µM (inactive)	2.82 µM (inactive)	8.28 µM (inactive)	3.56 µM (inactive)	

Compound	GI50 [1]	GI50 [2]	GI50 [3]	GI50 [4]	GI50 [5]	GI50 [6]	GI50 [7]	GI50 [8]	GI50 [9]
N=C(N)Nc1nc2cc(N)ccc2o1			> 100 µM (inactive)	> 100 µM (inactive)			> 100 µM (inactive)	> 100 µM (inactive)	> 100 µM (inactive)
COc1ccc(/C(=N/Nc2ccccc2)C(c2ccc(OC)cc2)C2OC(=O)c3ccccc32)cc1 (centres undefined)		> 100 µM (inactive)	> 10 µM (inactive)		> 100 µM (inactive)	50 µM (inactive)			> 100 µM (inactive)
CCOc1ccc(NC(=O)C(=O)C(C(=O)c2ccc3ccccc3c2)C2OC(=O)c3ccccc32)cc1 (centres undefined)	6.9 µM (inactive)	13.8 µM (inactive)	7.87 µM (inactive)	17.7 µM (inactive)	7.35 µM (inactive)	14.8 µM (inactive)	4.91 µM (inactive)	13.4 µM (inactive)	
CNC(=O)C(C)Oc1ccc(OCC2CCCCC2)cc1 (centres undefined)	77.4 µM (inactive)		> 100 µM (inactive)	16.3 µM (inactive)	> 100 µM (inactive)	59.7 µM (inactive)	> 100 µM (inactive)	> 100 µM (inactive)	
CCCCCCCCCCCCCP(=O)(O)NCC(N)=O	54.3 µM (inactive)	64.6 µM (inactive)	43.9 µM (inactive)	22 µM (inactive)		32.2 µM (inactive)		80.7 µM (inactive)	84.3 µM (inactive)
COc1cccc2c1[C@]1(O)C(O)CCCC21 (some centres undefined)	> 100 µM (inactive)		> 100 µM (inactive)	90.4 µM (inactive)	> 100 µM (inactive)	> 100 µM (inactive)	> 100 µM (inactive)	> 100 µM (inactive)	
Cn1cc2ccccc2c1-c1nc(N)nc(F)n1	> 100 µM (inactive)	> 100 µM (inactive)	> 100 µM (inactive)		> 100 µM (inactive)	85.3 µM (inactive)	> 100 µM (inactive)	54.3 µM (inactive)	> 100 µM (inactive)
CCc1ccccc1NC(=O)C(=O)C(C#N)c1ccccc1Cl (centres undefined)	> 100 µM (inactive)	> 100 µM (inactive)	> 100 µM (inactive)	> 100 µM (inactive)		> 100 µM (inactive)	> 100 µM (inactive)	> 100 µM (inactive)	> 100 µM (inactive)
CCCN1CN(C(C(=O)N[C@@H]2C(=O)N3C(C(=O)O)=C(C)CSC23)c2ccc(O)cc2)CSC1=S (some centres undefined)	> 100 µM (inactive)	> 100 µM (inactive)	> 100 µM (inactive)	> 100 µM (inactive)	> 100 µM (inactive)	52.4 µM (inactive)	> 100 µM (inactive)	> 100 µM (inactive)	
O=C1C(Cl)C(c2ccc(Cl)cc2)N1n1cnc2ccccc2c1=O (centres undefined)	72.4 µM (inactive)	80.7 µM (inactive)	> 100 µM (inactive)	57.5 µM (inactive)	30.3 µM (inactive)	42.3 µM (inactive)	> 100 µM (inactive)	> 100 µM (inactive)	
CN(C)CCCN1c2ccccc2Sc2ccc(C(F)(F)F)cc21 [TRIFLUPROMAZINE HYDROCHLORIDE]	60 µM (inactive)		17.2 µM (inactive)		14.7 µM (inactive)	18.2 µM (inactive)	15.7 µM (inactive)	17.5 µM (inactive)	
Nc1nc[n+](Cc2ccccc2CCO)c2[nH]cnc12	> 100 µM (inactive)	> 100 µM (inactive)		> 100 µM (inactive)	> 100 µM (inactive)	> 100 µM (inactive)		> 100 µM (inactive)	> 100 µM (inactive)
S=C1NC(c2ccccc2)=NC(Cc2ccccc2)(c2ccccc2)N1c1ccccc1 (centres undefined)	> 100 µM (inactive)		> 100 µM (inactive)	97.1 µM (inactive)		> 100 µM (inactive)	> 100 µM (inactive)	> 100 µM (inactive)	> 100 µM (inactive)
CC/C(=N/O)C(C)C(=O)CCC(=O)Nc1ccc(Cl)cc1 (centres undefined)	54.3 µM (inactive)	> 100 µM (inactive)	> 100 µM (inactive)	> 100 µM (inactive)	> 100 µM (inactive)	> 100 µM (inactive)	> 100 µM (inactive)	> 100 µM (inactive)	
O=C1N(Cl)C(=O)C(c2ccc(Cl)cc2)(c2ccc(Cl)cc2)N1Cl	63 µM (inactive)	> 100 µM (inactive)	62.2 µM (inactive)	> 100 µM (inactive)	> 100 µM (inactive)	39.9 µM (inactive)		39.7 µM (inactive)	
